In patent US8354407B2 (Boehringer Ingelheim International GmbH, priority 2006, dated 2013) one finds IC50 data, which are given here for 33 compounds.

In this assay the target is T1, full-length human PKCα enzyme (Homo sapiens, UniProt P17252).
T1 construct: full-length human PKCα enzyme; purchased Upstate Biotechnology
Description: Assessment of PKC-α Inhibitory Activity (MALDI-TOF kinase assay). The settings on record: full-length human PKCα 0.12 μg/ml; ATP 45 μM; neurogranin 28-43 peptide 22 μM; 30 minute incubation at 24° C.; MALDI-TOF MS readout. The format is biochemical. The procedure:
Measurement of PKCα enzyme activity is performed using full-length human PKCα enzyme (Upstate Biotechnology) at a final concentration of 0.12 μg/ml in a kinase assay buffer (0.09 mg/ml bovine serum albumin (BSA), 210 μM ethylenediaminetetraacetic acid (EDTA), 360 μM CaCl2, 1 mM Tris-HCl, pH=7.5, 0.5 mM MgCl2, 0.015 mg/ml phosphatidylserine and 0.015 mg/ml diacylglycerol). The reaction is initiated by addition of adenosine triphosphate (ATP; final concentration 45 μM) and a peptide substrate consisting of amino acids 28-43 (Ala-Ala-Lys-Ile-Gln-Ala-Ser-Phe-Arg-Gly-His-Met-Ala-Arg-Lys-Lys) of neurogranin (Promega; final concentration 22 μM). After a 30 minute incubation at 24° C. the reaction is terminated by adding 5 μL of the reaction mixture into 50 μL of MALDI matrix solution (5 mg/ml α-cyano-4-hydroxycinnamic acid in 50% Acetonitrile/H2O, 0.1% TFA, 5 mM ammonium phosphate). Two microliters of the stopped reaction mixture is transferred onto a MALDI-TOF mass spectrometer target plate.
All spectra are collected on an Applied Biosystems 4700 Proteomics Analyzer MALDI-TOF MS equipped with a Nd:YAG laser (355 nm, 3 ns pulse width, 200 Hz repetition rate) in negative ion reflector mode. The system is operated with 4700 Explorer software, version 3.0. Automated acquisition parameters are adjusted to capture and average only those individual spectra within defined success criteria. Specifically, signal intensities for the substrate peptide are set to a minimum threshold of 3000 counts and a maximum intensity of 65,000 counts. This ensured that neither null spectra nor saturated spectra are averaged into the final readout. Between 1000 and 1500 laser shots are averaged for each sample. Data are collected in triplicate from 3 successive days to capture the maximum variability related to preparation of enzyme reaction, transfer of samples to MALDI target plates, data collection, and data extraction.
The isotope cluster areas for each peptide substrate and product peaks are extracted into a Microsoft Excel worksheet from the 10×10 array of spectral data simultaneously using the automated analysis function provided within the 4700 Explore software. The isotope cluster area is defined by the software algorithm based on the molecular weight and the general elemental composition of the peptides. The percent conversion (% C) of substrate to product is calculated as the cluster area of the product (P) divided by the sum of the cluster areas of the substrate (S) and the product multiplied by 100 as represented by the following equation: […]
For dose-dependent inhibition studies, the inhibition is plotted as a % Maximal Activity (% MA). Equation one is a measure of the ratio of product to substrate then solving for the % C. However, to measure inhibition of the enzyme activity, one must measure the degree to which that activity (% C) is curtailed. Thus the dose-dependant inhibition data is plotted as % MA where the maximal activity is the % C measured in control reactions with no inhibitor as represented by the following equation: […]
In the case of `O=S(=O)(Nc1ccccc1)c1cccc(Nc2nccc(NCCCN3CCOCC3)n2)c1`, the IC50 (as a rule, the midpoint of a concentration-inhibition curve) is 23 nM. The value for `O=C1CCCN1CCCNc1ccnc(Nc2cccc(Cl)c2)n1` [1-{3-[2-(3-Chlorophenylamino)-pyrimidin-4-ylamino]-propyl}-pyrrolidin-2-one] was 710 nM; that for `O=S(=O)(NCc1cccnc1)c1cccc(Nc2nccc(NCCCN3CCOCC3)n2)c1` [3-[4-(3-Morpholin-4-yl-propylamino)-pyrimidin-2-ylamino]-N-(pyridin-3-ylmethyl)-benzenesulfonamide] was 52 nM.

Turning to `NS(=O)(=O)c1cccc(Nc2nccc(NCCCN3CCOCC3)n2)c1` [3-[4-(3-Morpholin-4-yl-propylamino)-pyrimidin-2-ylamino]-benzenesulfonamide], the IC50 was 14 nM.

`O=C(Nc1cccc(Cl)c1)c1cccc(Nc2nccc(NCCCN3CCCC3)n2)c1` [N-(3-Chlorophenyl)-3-[4-(3-pyrrolidin-1-yl-propylamino)-pyrimidin-2-ylamino]-benzamide] came in with a 50% inhibitory concentration (IC50) of 12 nM.

In turn, `CC(C)NC(=O)c1cccc(Nc2nccc(NCCCN3CCCC3)n2)c1` [N-Isopropyl-3-[4-(3-pyrrolidin-1-yl-propylamino)-pyrimidin-2-ylamino]-benzamide] gave a 50% inhibitory concentration (IC50) of 344 nM. Consider `O=C(Nc1cccc(Nc2nccc(NCCCN3CCOCC3)n2)c1)c1ccccc1` [N-{3-[4-(3-Morpholin-4-yl-propylamino)-pyrimidin-2-ylamino]-phenyl}-benzamide], for which the concentration for half-maximal inhibition (IC50) is 25 nM. The value for `O=C(Nc1cccc(Nc2nccc(NCCCN3CCOCC3)n2)c1)c1cccnc1` [N-{3-[4-(3-Morpholin-4-yl-propylamino)-pyrimidin-2-ylamino]-phenyl}-nicotinamide] was 112 nM; that for `FC(F)(F)c1cc(Nc2nccc(NCCCN3CCOCC3)n2)cc(C(F)(F)F)c1` [N^2-(3,5-Bis-trifluoromethyl-phenyl)-N^4-(3-morpholin-4-yl-propyl)-pyrimidine-2,4-diamine] was 21 nM; that for `Brc1cccc(Nc2nccc(NCCCN3CCOCC3)n2)c1` [N^2-(3-Bromophenyl)-N^4-(3-morpholin-4-yl-propyl)-pyrimidine-2,4-diamine] was 1 nM.

Compound `Clc1cccc(Nc2nccc(NCC3CCNCC3)n2)c1` [N^2-(3-Chloro-phenyl)-N^4-piperidin-4-ylmethyl-pyrimidine-2,4-diamine] showed a concentration for half-maximal inhibition (IC50) of 37 nM.

`CN1CCCC(CNc2ccnc(Nc3cccc(Cl)c3)n2)C1` (stereo not drawn) [N^2-(3-Chlorophenyl)-N^4-(1-methylpiperidin-3-ylmethyl)-pyrimidine-2,4-diamine]: the concentration for half-maximal inhibition (IC50) is 4 nM. The value for `CN1CCC(CNc2ccnc(Nc3cccc(Cl)c3)n2)CC1` [N^2-(3-Chlorophenyl)-N^4-(1-methylpiperidin-4-yl-methyl)-pyrimidine-2,4-diamine] was 30 nM. `Clc1cccc(Nc2nccc(NCCCN3CCOCC3)n2)c1` [N^2-(3-Chlorophenyl)-N^4-(3-morpholin-4-yl-propyl)-pyrimidine-2,4-diamine]: the IC50 was determined as 2 nM. The value for `Clc1cccc(Nc2nccc(NCCCN3CCCC3)n2)c1` [N^2-(3-Chlorophenyl)-N^4-(3-pyrrolidin-1-yl-propyl)-pyrimidine-2,4-diamine] was 3 nM; that for `CN1C2CCC1CC(Nc1ccnc(Nc3cccc(Cl)c3)n1)C2` (stereo not drawn) [N^2-(3-Chlorophenyl)-N^4-(8-methyl-8-azabicyclo[3.2.1]oct-3-yl)-pyrimidine-2,4-diamine] was 4 nM. The value for `CN1CCCC1CCNc1ccnc(Nc2cccc(Cl)c2)n1` (stereo not drawn) [N^2-(3-Chlorophenyl)-N^4-[2-(1-methylpyrrolidin-2-yl)-ethyl]-pyrimidine-2,4-diamine] was 0.4 nM; that for `CN1CCN(CCCNc2ccnc(Nc3cccc(Cl)c3)n2)CC1` [N^2-(3-Chlorophenyl)-N^4-[3-(4-methylpiperazin-1-yl)-propyl]-pyrimidine-2,4-diamine] was 5 nM.

For `Clc1cccc(Nc2nccc(NCC3CNCCO3)n2)c1` (stereo not drawn) [N^2-(3-Chlorophenyl)-N^4-morpholin-2-ylmethyl-pyrimidine-2,4-diamine], the midpoint of inhibition, the IC50, lay at 23 nM. The value for `Clc1cccc(Nc2nccc(NCC3CCCNC3)n2)c1` (stereo not drawn) [N^2-(3-Chlorophenyl)-N^4-piperidin-3-ylmethyl-pyrimidine-2,4-diamine] was 25 nM. The value for `CN1CC[C@@H](CNc2ccnc(Nc3cccc(Cl)c3)n2)C1` [N^2-(3-Chlorophenyl)-N^4-{[(3S)-1-methylpyrrolidin-3-yl]methyl}pyrimidine-2,4-diamine] was 13 nM; that for `CN1CC[C@H](CNc2ccnc(Nc3cccc(Cl)c3)n2)C1` [N^2-(3-Chlorophenyl)-N^4—[(3R)-1-methylpyrrolidin-3-ylmethyl]-pyrimidine-2,4-diamine] was 7 nM; that for `Fc1cccc(Nc2nccc(NCCCN3CCOCC3)n2)c1` [N^2-(3-Fluorophenyl)-N^4-(3-morpholin-4-yl-propyl)-pyrimidine-2,4-diamine] was 64 nM. The value for `CC(C)c1cccc(Nc2nccc(NCCCN3CCOCC3)n2)c1` [N^2-(3-Isopropylphenyl)-N^4-(3-morpholin-4-yl-propyl)-pyrimidine-2,4-diamine] was 80 nM.

Take `Cc1cccc(Nc2nccc(NCCCN3CCCC3)n2)c1` [N^2-(3-Methylphenyl)-N^4-(3-pyrrolidin-1-yl-propyl)-pyrimidine-2,4-diamine]: the 50% inhibitory concentration (IC50) worked out at 40 nM. The value for `O=[N+]([O-])c1cccc(Nc2nccc(NCCCN3CCOCC3)n2)c1` [N^2-(3-Nitrophenyl)-N^4-(3-morpholin-4-yl-propyl)-pyrimidine-2,4-diamine] was 1 nM; that for `O=[N+]([O-])c1cccc(Nc2nccc(NCCCN3CCCC3)n2)c1` [N^2-(3-Nitrophenyl)-N^4-(3-pyrrolidin-1-yl-propyl)-pyrimidine-2,4-diamine] was 2 nM. The value for `c1ccc(Oc2cccc(Nc3nccc(NCCCN4CCOCC4)n3)c2)cc1` [N^2-(3-Phenoxyphenyl)-N^4-(3-morpholin-4-yl-propyl)-pyrimidine-2,4-diamine] was 50 nM; that for `Clc1cc(Nc2nccc(NCCCN3CCCC3)n2)ccc1OCc1ccccc1` [N^2-(4-(Benzyloxy)-3-chlorophenyl)-N^4-(3-pyrrolidin-1-yl-propyl)-pyrimidine-2,4-diamine] was 40 nM. The value for `c1ccc(-c2cccc(Nc3nccc(NCCCN4CCOCC4)n3)c2)cc1` [N^2-Biphenyl-3-yl-N^4-(3-morpholin-4-yl-propyl)-pyrimidine-2,4-diamine] was 3 nM. `c1cc(Cc2cc3ccccc3[nH]2)cc(Nc2nccc(NCCCN3CCOCC3)n2)c1` [N^2-[3-(1H-Indol-2-ylmethyl)-phenyl]-N^4-(3-morpholin-4-yl-propyl)-pyrimidine-2,4-diamine] displayed a 50% inhibitory concentration (IC50) of 18 nM.

Take `c1cc(Nc2nccc(NCCCN3CCOCC3)n2)cc(-c2cccc3[nH]ccc23)c1` [N^2-[3-(1H-Indol-4-yl)-phenyl]-N^4-(3-morpholin-4-yl-propyl)-pyrimidine-2,4-diamine]: the IC50 is 12 nM. The value for `CN1CCN(S(=O)(=O)c2cccc(Nc3nccc(NCCCN4CCOCC4)n3)c2)CC1` [N^2-[3-(4-Methyl-piperazine-1-sulfonyl)phenyl]-N^4-(3-morpholin-4-ylpropyl)-pyrimidine-2,4-diamine] was 83 nM.
